According to patent publication US20260248882A1, “USE OF ANNEXIN A5 IN HAIR GROWTH, HAIR NURTURING, HAIR CARE, HAIR LOSS PREVENTION, AND HAIR LOSS TREATMENT, AND RELATED PRODUCTS AND PHARMACEUTICAL COMPOSITIONS” (SHANGHAI CELLEAF BIOTECHNOLOGY CO., LTD, priority 2023, published 2026):

Tests used:
[1] = test system: mouse androgenetic hair loss model; test: Hair growth observation in mouse androgenetic hair loss model (DHT-induced); type: in vivo; settings: C57BL/6 male mice, depilated back, FIG. 1
Experimental: (§1) Experimental animals: C57BL/6 male mice, 5-7 weeks old, weighing around 20 g were housed in a 12 hour light/12 hour dark environment, with free access to food and water. The experiment set up control group (CTRL); model group (DHT); A5-Low group (treated with Annexin A5, injected once every three days); and A5-High group (treated with Annexin A5, injected once a day). Each group consists of 6 mice.
(§2) Modeling and administration: Dihydrotestosterone (DHT) was used to induce the formation of the mouse androgenetic hair loss model. In addition to the control group, the other three groups of mice received subcutaneous injection of DHT solution (5 mg/mL) at the neck, 0.01 mL for each, for a total of 2 weeks. The control group was injected with an equal volume of physiological saline. After 2 weeks, all mice were shaved and their back hair was removed using a shaving knife. Then hair removal cream was used to further remove residual hair from the shaved area of the mice. After hair removal, both the control group and the model group were injected daily with […] of PBS in the hair removal area, divided into 10 injection points, with 20 μL per point. The A5-Low group received Annexin A5 treatment once every three days, while the A5-High group received Annexin A5 treatment once a day. […] The status of hair growth on the back of mice was observed every day and recorded by taking photos. […]

[2] = test system: mouse androgenetic hair loss model; test: Histological HE staining analysis of skin sections; type: in vivo; settings: DHT model mice treated with Annexin A5 for 2 weeks, FIG. 2
Experimental: as §1
Modeling and administration: Dihydrotestosterone (DHT) was used to induce the formation of the mouse androgenetic hair loss model. In addition to the control group, the other three groups of mice received subcutaneous injection of DHT solution (5 mg/mL) at the neck, 0.01 mL for each, for a total of 2 weeks. The control group was injected with an equal volume of physiological saline. After 2 weeks, all mice were shaved and their back hair was removed using a shaving knife. Then hair removal cream was used to further remove residual hair from the shaved area of the mice. After hair removal, both the control group and the model group were injected daily with […] of PBS in the hair removal area, divided into 10 injection points, with 20 μL per point. The A5-Low group received Annexin A5 treatment once every three days, while the A5-High group received Annexin A5 treatment once a day. The injection method was subcutaneous injection at 10 points in the hair removal area, with 20 μL of Annexin A5 at a concentration of 50 μg/mL injected at each point. The status of hair growth on the back of mice was observed every day and recorded by taking photos. Samples were collected after 16 days.
Tissue sampling: After drug treatment, mice were euthanized by cervical dislocation. […]
Sections were taken for xylene dewaxing and gradient ethanol hydration, and then hematoxylin and eosin staining was performed. […] The next day, an optical microscope was used to observe and record, and the number of hair follicles was statistical analyzed.

[3] = test system: Ki67 (cell proliferation marker); test: Ki67 immunohistochemical staining of paraffin skin sections; type: in vivo, mouse; settings: DHT model mice after Annexin A5 treatment; FIG. 3
Experimental: as §1, §2

[4] = test system: CD31 (vascular angiogenesis marker); test: CD31 immunohistochemical staining of paraffin skin sections; type: in vivo, mouse; settings: DHT model mice after Annexin A5 treatment; FIG. 3
Experimental: as §1, §2

androgen receptor (AR) = test: Western Blot of androgen receptor expression in isolated dermal papillae; type: in vivo, mouse; settings: DHT model mice, A5-Low/A5 High groups, FIG. 4
Experimental: as §1
(§3) Modeling and administration: Dihydrotestosterone (DHT) was used to induce the formation of the mouse androgenetic hair loss model. In addition to the control group, the other three groups of mice received subcutaneous injection of DHT solution (5 mg/mL) at the neck, 0.01 mL for each, for a total of 2 weeks. The control group was injected with an equal volume of physiological saline. After 2 weeks, all mice were shaved and their back hair was removed using a shaving knife. […] The status of hair growth on the back of mice was observed every day and recorded by taking photos. […]
(§4) Sample Treatment: After euthanizing the mice, 1 cm^2 skin tissue was collected, and the hair on the skin surface was removed with a scissors as much as possible. […] The supernatant was collected by high-speed centrifugation, the protein concentration was determined using BCA method, and protein samples were prepared according to Western Blot requirements. […]

[5] = test system: transforming growth factor β1 (TGF β-1); test: Western Blot of TGF-β1 expression in isolated dermal papillae; type: in vivo, mouse; settings: DHT model mice, A5-Low/A5 High groups, FIG. 4
Experimental: as §1, §3, §4

Substance: Annexin A5: calcium phospholipid binding protein composed of a single polypeptide chain of 319 amino acids
- entry into anagen phase (skin turning black) ([1]; A5-Low and A5-High groups): entered the anagen phase earlier
- hair growth ability ([1]; subcutaneous Annexin A5 50 μg/mL, 10 points x 20 μL, once every three days or once a day, observed 16 days): significantly enhanced hair growth ability
- dermal thickness [2]: did not affect
- follicle size [2]: did not affect
- number of hair follicle dermal papillae [2]: did not affect
- proliferation and survival ability of cells in the hair follicles (Ki67) [3]: improved
- number of capillaries around the dermal papillae (CD31) [4]: increased
- AR expression in dermal papillae (androgen receptor (AR)): significant inhibition
- TGF-β1 expression in dermal papillae [5]: significant inhibition
